In brackets after ≈: the same amount, converted by molar mass. Several values for one entry are separate records, joined by “and”; a condition that tells them apart may be missing. Equal entries are not always repeated.
Key:
Streptococcus pyogenes = assay: mouse protection, experimentally-induced infection; format: in vivo; details: mice infected with Streptococcus pyogenes, two doses
[1] = system: vancomycin-resistant enterococci; assay: broth micro-dilution, mean geometric MIC; format: cell-based, Enterococcus faecium and Enterococcus faecalis; details: enterococci, 24-hour incubation
Streptococcus pneumoniae = assay: mouse protection, experimentally-induced infection; format: in vivo; details: mice infected with Streptococcus pneumoniae, two doses
[2] = system: vancomycin-susceptible enterococci; assay: broth micro-dilution, mean geometric MIC; format: cell-based, Enterococcus faecium and Enterococcus faecalis; details: enterococci, 24-hour incubation
[3] = system: Staphylococcus aureus SA1199; assay: broth micro-dilution MIC; format: cell-based
Procedure: (§1) The MIC's were determined using a standard broth micro-dilution assay.

Entercoccus faecium 276 = assay: broth micro-dilution MIC; format: cell-based
Procedure: as §1

[4] = system: Entercoccus faecium 180-1; assay: broth micro-dilution MIC; format: cell-based
Procedure: as §1

[5] = system: Staphylococcus aureus SA1199A; assay: broth micro-dilution MIC; format: cell-based
Procedure: as §1

[6] = system: Staphylococcus aureus 447; assay: broth micro-dilution MIC; format: cell-based
Procedure: as §1

[7] = system: Staphylococcus aureus X778; assay: broth micro-dilution MIC; format: cell-based
Procedure: as §1

[8] = system: Staphylococcus aureus S13E; format: cell-based
Procedure: as §1

[9] = system: Enterococcus gallinarum 245; assay: broth micro-dilution MIC; format: cell-based; details: Enterococcus gallinarum 245
Procedure: (§2) The formula I compounds have in vitro and in vivo activity against Gram-positive pathogenic bacteria. The MIC's were determined using a standard broth micro-dilution assay.

[10] = system: Staphylococcus epidermidis 270; assay: broth micro-dilution MIC; format: cell-based
Procedure: as §2

[11] = system: Staphylococcus haemolyticus 415; assay: broth micro-dilution MIC; format: cell-based
Procedure: as §2

[12] = system: Streptococcus pneumoniae P1; assay: broth micro-dilution MIC; format: cell-based
Procedure: as §2

Entercoccus faecium 2041 = assay: broth micro-dilution MIC; format: cell-based; details: Entercoccus faecium 2041
Procedure: as §2

[13] = system: Streptococcus pyogenes C203; assay: broth micro-dilution MIC; format: cell-based
Procedure: as §1

[14] = system: Staphylococcus aureus 446; assay: broth micro-dilution MIC; format: cell-based
Procedure: as §1

[15] = system: Staphylococcus aureus SA1199B; format: cell-based
Procedure: as §1

Entercoccus faecium 180 = assay: broth micro-dilution MIC; format: cell-based; details: Entercoccus faecium 180
Procedure: as §2

[16] = system: Staphylococcus haemolyticus 105; assay: broth micro-dilution MIC; format: cell-based
Procedure: as §2

[17] = system: Staphylococcus aureus 491; assay: broth micro-dilution MIC; format: cell-based
Procedure: as §1

[18] = system: Staphylococcus aureus X400; assay: broth micro-dilution MIC; format: cell-based
Procedure: as §1

[19] = system: Staphylococcus aureus 489; assay: broth micro-dilution MIC; format: cell-based
Procedure: as §1

Escherichia coli EC14 = assay: broth micro-dilution MIC; format: cell-based
Procedure: as §2

[20] = system: Haemophilus influenzae RD; assay: broth micro-dilution MIC; format: cell-based; details: Haemophilus influenzae RD
Procedure: as §2

SMILES | mean geometric MIC, Vancomycin Resistant Strains [1] | mean geometric MIC, Vancomycin Sensitive Strains [2] | MIC [3] | MIC (Entercoccus faecium 276) | MIC [4] | MIC [5] | MIC [6] | MIC [7] | MIC [8] | MIC [9] | MIC [10] | MIC [11] | MIC [12] | MIC (Entercoccus faecium 2041) | MIC [13] | MIC [14] | MIC [15] | MIC (Entercoccus faecium 180) | MIC [16] | MIC [17] | also measured
CNC(CC(C)C)C(=O)NC1C(=O)NC(CC(N)=O)C(=O)NC2C(=O)NC3C(=O)NC(C(=O)NC(C(=O)O)c4cc(O)cc(O)c4-c4cc3ccc4O)C(OC3CC(C)(N)C(O)C(C)O3)c3ccc(c(Cl)c3)Oc3cc2cc(c3OC2OC(CO)C(O)C(O)C2OC2CC(C)(NCc3ccc(C(c4ccccc4)c4ccccc4)cc3)C(O)C(C)O2)Oc2ccc(cc2Cl)C1O (centres unmarked) [Compound 46] | 0.71 mg/L | 0.50 mg/L | – | – | – | – | – | – | – | – | – | – | – | – | – | – | – | – | – | – | ED50 (Streptococcus pyogenes): 0.378 mg/kg/2; ED50 (Streptococcus pneumoniae): 0.156 mg/kg/2
CNC(CC(C)C)C(=O)NC1C(=O)NC(CC(N)=O)C(=O)NC2C(=O)NC3C(=O)NC(C(=O)NC(C(=O)O)c4cc(O)cc(O)c4-c4cc3ccc4O)C(OC3CC(C)(N)C(O)C(C)O3)c3ccc(c(Cl)c3)Oc3cc2cc(c3OC2OC(CO)C(O)C(O)C2OC2CC(C)(NCc3ccc(-c4ccc([N+](=O)[O-])cc4)cc3)C(O)C(C)O2)Oc2ccc(cc2Cl)C1O (centres unmarked) [Compound 64] | 0.71 mg/L | 0.077 mg/L | 1 mg/L (≈ 0.554 µM) | 0.5 mg/L (≈ 0.277 µM) | ≤ 0.06 mg/L | ≤ 0.06 mg/L | 0.5 mg/L (≈ 0.277 µM) | 2 mg/L (≈ 1.11 µM) | 2 mg/L (≈ 1.11 µM) | 2 mg/L (≈ 1.11 µM) | 0.5 mg/L (≈ 0.277 µM) | 2 mg/L (≈ 1.11 µM) | ≤ 0.06 mg/L | ≤ 0.06 mg/L | – | – | – | – | – | – | ED50 (Streptococcus pyogenes): 0.044 mg/kg/2; ED50 (Streptococcus pneumoniae): < 0.031 mg/kg/2
CNC(CC(C)C)C(=O)NC1C(=O)NC(CC(N)=O)C(=O)NC2C(=O)NC3C(=O)NC(C(=O)NC(C(=O)O)c4cc(O)cc(O)c4-c4cc3ccc4O)C(OC3CC(C)(N)C(O)C(C)O3)c3ccc(c(Cl)c3)Oc3cc2cc(c3OC2OC(CO)C(O)C(O)C2OC2CC(C)(NCc3ccc(CCc4ccccc4)cc3)C(O)C(C)O2)Oc2ccc(cc2Cl)C1O (centres unmarked) [Compound 100] | 0.71 mg/L | 0.042 mg/L | – | – | ≤ 0.06 mg/L | – | – | – | – | 2 mg/L (≈ 1.12 µM) | 0.5 mg/L and 0.25 mg/L | 2 mg/L and 4 mg/L | ≤ 0.06 mg/L | ≤ 0.06 mg/L | ≤ 0.06 mg/L | 1 mg/L (≈ 0.56 µM) | 0.5 mg/L (≈ 0.28 µM) | 0.25 mg/L (≈ 0.14 µM) | 1 mg/L (≈ 0.56 µM) | – | ED50 (Streptococcus pyogenes): 0.062 mg/kg/2; ED50 (Streptococcus pneumoniae): 0.046 mg/kg/2
CC(C)CC(C(=O)NC1C(=O)NC(CC(N)=O)C(=O)NC2C(=O)NC3C(=O)NC(C(=O)NC(C(=O)O)c4cc(O)cc(O)c4-c4cc3ccc4O)C(OC3CC(C)(N)C(O)C(C)O3)c3ccc(c(Cl)c3)Oc3cc2cc(c3OC2OC(CO)C(O)C(O)C2OC2CC(C)(NCc3c4ccccc4cc4ccccc34)C(O)C(C)O2)Oc2ccc(cc2Cl)C1O)N(C)Cc1c2ccccc2cc2ccccc12 (centres unmarked) [Compound 284] | 38 mg/L | 2.3 mg/L | 8 mg/L (≈ 4.05 µM) | 8 mg/L (≈ 4.05 µM) | 0.5 mg/L (≈ 0.253 µM) | 0.25 mg/L (≈ 0.127 µM) | 8 mg/L (≈ 4.05 µM) | 1 mg/L (≈ 0.507 µM) | 4 mg/L (≈ 2.03 µM) | 32 mg/L (≈ 16.2 µM) | 16 mg/L (≈ 8.11 µM) | 32 mg/L (≈ 16.2 µM) | ≤ 0.06 mg/L | 1 mg/L (≈ 0.507 µM) | ≤ 0.06 mg/L | 8 mg/L (≈ 4.05 µM) | 4 mg/L (≈ 2.03 µM) | 8 mg/L (≈ 4.05 µM) | 32 mg/L (≈ 16.2 µM) | 2 mg/L (≈ 1.01 µM) | MIC [18]: 4 mg/L (≈ 2.03 µM); MIC [19]: 2 mg/L (≈ 1.01 µM); MIC (Escherichia coli EC14): > 64 mg/L; MIC [20]: > 64 mg/L
CC(C)CC(C(=O)NC1C(=O)NC(CC(N)=O)C(=O)NC2C(=O)NC3C(=O)NC(C(=O)NC(C(=O)O)c4cc(O)cc(O)c4-c4cc3ccc4O)C(OC3CC(C)(N)C(O)C(C)O3)c3ccc(c(Cl)c3)Oc3cc2cc(c3OC2OC(CO)C(O)C(O)C2OC2CC(C)(NCc3ccc4ccccc4n3)C(O)C(C)O2)Oc2ccc(cc2Cl)C1O)N(C)Cc1ccc2ccccc2n1 (centres unmarked) [Compound 285] | 90 mg/L | 2.4 mg/L | 2 mg/L (≈ 1.07 µM) | 0.5 mg/L (≈ 0.267 µM) | 0.25 mg/L (≈ 0.133 µM) | 0.25 mg/L (≈ 0.133 µM) | 32 mg/L (≈ 17.1 µM) | 1 mg/L (≈ 0.533 µM) | 1 mg/L (≈ 0.533 µM) | 16 mg/L (≈ 8.53 µM) | 8 mg/L (≈ 4.27 µM) | 16 mg/L (≈ 8.53 µM) | ≤ 0.06 mg/L | 0.5 mg/L (≈ 0.267 µM) | ≤ 0.06 mg/L | 4 mg/L (≈ 2.13 µM) | 1 mg/L (≈ 0.533 µM) | 16 mg/L (≈ 8.53 µM) | 16 mg/L (≈ 8.53 µM) | 4 mg/L (≈ 2.13 µM) | MIC [18]: 4 mg/L (≈ 2.13 µM); MIC [19]: 1 mg/L (≈ 0.533 µM); MIC (Escherichia coli EC14): > 64 mg/L; MIC [20]: > 64 mg/L
CC(C)CC(C(=O)NC1C(=O)NC(CC(N)=O)C(=O)NC2C(=O)NC3C(=O)NC(C(=O)NC(C(=O)O)c4cc(O)cc(O)c4-c4cc3ccc4O)C(OC3CC(C)(NCc4cccc5c([N+](=O)[O-])cccc45)C(O)C(C)O3)c3ccc(c(Cl)c3)Oc3cc2cc(c3OC2OC(CO)C(O)C(O)C2OC2CC(C)(N)C(O)C(C)O2)Oc2ccc(cc2Cl)C1O)N(C)Cc1cccc2c([N+](=O)[O-])cccc12 (centres unmarked) [Compound 286] | 19 mg/L | 1.1 mg/L | 2 mg/L (≈ 1.02 µM) | 1 mg/L (≈ 0.509 µM) | 0.25 mg/L (≈ 0.127 µM) | ≤ 0.06 mg/L | 8 mg/L (≈ 4.08 µM) | 4 mg/L (≈ 2.04 µM) | 4 mg/L (≈ 2.04 µM) | 4 mg/L (≈ 2.04 µM) | 4 mg/L (≈ 2.04 µM) | 4 mg/L (≈ 2.04 µM) | ≤ 0.06 mg/L | 1 mg/L (≈ 0.509 µM) | ≤ 0.06 mg/L | 1 mg/L (≈ 0.509 µM) | 4 mg/L (≈ 2.04 µM) | 8 mg/L (≈ 4.08 µM) | 8 mg/L (≈ 4.08 µM) | 2 mg/L (≈ 1.02 µM) | MIC [18]: 2 mg/L (≈ 1.02 µM); MIC [19]: 2 mg/L (≈ 1.02 µM); MIC (Escherichia coli EC14): > 64 mg/L; MIC [20]: > 64 mg/L
CC(C)CC(C(=O)NC1C(=O)NC(CC(N)=O)C(=O)NC2C(=O)NC3C(=O)NC(C(=O)NC(C(=O)O)c4cc(O)cc(O)c4-c4cc3ccc4O)C(OC3CC(C)(N)C(O)C(C)O3)c3ccc(c(Cl)c3)Oc3cc2cc(c3OC2OC(CO)C(O)C(O)C2OC2CC(C)(NCC3CC=CCC3)C(O)C(C)O2)Oc2ccc(cc2Cl)C1O)N(C)CC1CC=CCC1 (centres unmarked) [Compound 287] | 45 mg/L | 1.1 mg/L | 0.5 mg/L (≈ 0.281 µM) | 0.25 mg/L (≈ 0.14 µM) | 0.125 mg/L (≈ 0.0702 µM) | ≤ 0.06 mg/L | 4 mg/L (≈ 2.25 µM) | 0.5 mg/L (≈ 0.281 µM) | 1 mg/L (≈ 0.562 µM) | 0.5 mg/L (≈ 0.281 µM) | 4 mg/L (≈ 2.25 µM) | 16 mg/L (≈ 8.98 µM) | ≤ 0.06 mg/L | 0.125 mg/L (≈ 0.0702 µM) | ≤ 0.06 mg/L | 1 mg/L (≈ 0.562 µM) | 0.25 mg/L (≈ 0.14 µM) | 16 mg/L (≈ 8.98 µM) | 8 mg/L (≈ 4.49 µM) | 1 mg/L (≈ 0.562 µM) | MIC [18]: 0.5 mg/L (≈ 0.281 µM); MIC [19]: 0.5 mg/L (≈ 0.281 µM); MIC (Escherichia coli EC14): > 64 mg/L; MIC [20]: > 64 mg/L
CNC(CC(C)C)C(=O)NC1C(=O)NC(CC(N)=O)C(=O)NC2C(=O)NC3C(=O)NC(C(=O)NC(C(=O)O)c4cc(O)cc(O)c4-c4cc3ccc4O)C(OC3CC(C)(NCc4ccc(OCCOC(C)(C)C)cc4)C(O)C(C)O3)c3ccc(c(Cl)c3)Oc3cc2cc(c3OC2OC(CO)C(O)C(O)C2OC2CC(C)(NCc3ccc(OCCOC(C)(C)C)cc3)C(O)C(C)O2)Oc2ccc(cc2Cl)C1O (centres unmarked) [Compound 288] | 11 mg/L | 1.7 mg/L | 2 mg/L (≈ 0.997 µM) | 2 mg/L (≈ 0.997 µM) | 1 mg/L (≈ 0.499 µM) | 1 mg/L (≈ 0.499 µM) | 2 mg/L (≈ 0.997 µM) | 2 mg/L (≈ 0.997 µM) | 2 mg/L (≈ 0.997 µM) | 2 mg/L (≈ 0.997 µM) | 1 mg/L (≈ 0.499 µM) | 4 mg/L (≈ 1.99 µM) | ≤ 0.06 mg/L | 1 mg/L (≈ 0.499 µM) | ≤ 0.06 mg/L | 2 mg/L (≈ 0.997 µM) | 1 mg/L (≈ 0.499 µM) | 4 mg/L (≈ 1.99 µM) | 2 mg/L (≈ 0.997 µM) | 2 mg/L (≈ 0.997 µM) | MIC [18]: 2 mg/L (≈ 0.997 µM); MIC [19]: 2 mg/L (≈ 0.997 µM); MIC (Escherichia coli EC14): > 64 mg/L; MIC [20]: > 64 mg/L

— patent US5840684A, “Glycopeptide antibiotic derivatives” (Eli Lilly and Company, priority 1995, dated 1998)
